{"source": "patent US20220218614A1", "about": "“IONIZABLE CATIONIC LIPIDS AND LIPID NANOPARTICLES, AND METHODS OF SYNTHESIS AND USE THEREOF” (Tidal Therapeutics, Inc., priority 2020, published 2022)", "test_system": "primary human T-cells (CD3+ T cells)", "assay": "In vitro LNP transfection of primary human T-cells (GFP, Cy5 or DiI, viability by FACS)", "type": "cell-based", "excerpt": "This example describes the protocol used for in vitro LNP transfections in primary human T-cells. This method is used to assess LNP in vitro efficacy in relevant target cells (CD3+ T cells) by first transfecting the cells using LNPs loaded with mRNA encoding for a reporter gene, such as GFP mRNA, and then assessing transfection by measuring reporter gene expression by fluorescence-[…] cell sorting (FACS). Additionally, particle association with cells may be observed by in the same assay by labeling individual nanoparticle components, such as the mRNA, with a fluorescent dye, such as Cy5, and then observing cell/dye association by FACS.\nCD3+ T cells were isolated from frozen peripheral blood mononuclear cells using an EasySep Human T Cell Isolation Kit on a RoboSep automated cell isolation system from […]. T cells were plated into a flat bottom 96-well plate in RPMI cell culture media supplemented with glutamax, 10% fetal bovine serum, and 40 ng/mL IL2. 100 μL of cell suspension was seeded per well at a density of 1M T cells/mL (100K T cells/well). Cells were allowed to rest for two hours in a 37° C. incubator, and then were transfected by gently adding 10 μL of a 22 μg/mL (by mRNA) nanoparticle suspension, resulting in a final mRNA concentration of 2 μg/mL. Cells were gently mixed with a pipette and then incubated for 24 hours in a 37° C. incubator. After incubation the cells were analyzed using an ThermoFisher Attune NXT flow cytometer. Cy5 was detected using a 638 nm laser with 670/14 nm filter. eGFP was detected using a 488 nm laser and a 530/30 nm filter. Data were analyzed using FlowJo software from BD biosciences. FACS data were first gated to exclude doublets and dead cells and then gated for GFP and Cy5. Gates for GFP+ and Cy5+were set such that a control sample (PBS treated T cells) was <0.1% positive.\nCD3+ T cells were isolated from frozen peripheral blood mononuclear cells using an EasySep Human T Cell Isolation Kit on a RoboSep automated cell isolation system from […]. T cells were plated into a round bottom 96-well plate in RPMI cell culture media supplemented with glutamax, 10% fetal bovine serum, pen-strep, and 40 ng/mL IL-2. 100 μL of cell suspension was seeded per well at a density of 1M T cells/mL (100K T cells/well). Cells were allowed to rest for two hours in a 37° C. incubator, and then were transfected by gently adding 10 μL of a 22 μg/mL (by mRNA) nanoparticle suspension, resulting in a final mRNA concentration of 2 μg/mL (unless otherwise noted). Cells were gently mixed with a pipette and then incubated for 24 hours in a 37° C. incubator. After incubation the cells were diluted with FACS buffer (BD 554657) and analyzed using a BD Fortessa flow cytometer. Data were analyzed using FlowJo software from BD biosciences.", "note": "Entries after “also recorded” stand apart in the source; their conditions may differ.", "data": [{"smiles": "CCCCC/C=C\\C/C=C\\CCCCCCCC(=O)OC[C@H](CCN(C)C)OC(=O)CCCCCCC/C=C\\C/C=C\\CCCCC", "note": "[Lipid 5]", "values": [{"measurement": "GFP MFI, fold relative to DLn-MC3-DMA", "setting": "0.5 ug/mL and 1.0 ug/mL dose/well", "result": "> 5", "unit": "fold"}, {"measurement": "T-cell viability", "setting": "all three dose levels (0.125, 0.5 and 2 ug mRNA/mL per well), PBS control about 50%", "result": "40-45%"}, {"measurement": "GFP protein expression (% GFP+ cells, GFP MFI), in words", "setting": "hSP34 targeted LNP with GFP mRNA, 24 hours", "result": "Dose dependent expression of GFP protein; also recorded: greater overall protein expression at all three mRNA dose levels; also recorded: outperformed both Lipid 8 and DLn-MC3-DMA"}, {"measurement": "LNP association with cells (% Cy5+/Cy5 MFI or % DiI+/DiI MFI), in words", "setting": "hSP34 targeted LNP, 24 hours", "result": "equally associated with cells"}, {"measurement": "T-cell viability / tolerability, in words", "setting": "hSP34 targeted LNP, 24 hours, dose as in the value", "result": "well tolerated by T-cells at and below 0.5 μg/mL dose; also recorded: consistently better tolerated by T-cells; also recorded: well tolerated by T-cells at and below 1.0 μg/mL dose; also recorded: better tolerated at higher doses; also recorded: least toxic at 1 ug/mL dose"}]}]}
